pIC50: −log10 of the molar value. “Also recorded” adds a separate entry of the source.
How the values were obtained:
responder CD4+ T cells = experiment: Treg suppression of responder CD4+ T cell proliferation in vitro; format: cell-based, mouse; conditions: Tregs generated in the presence of CDK8 inhibitor
Experimental: FIG. 19—Suppressing T-cell proliferation in vitro. Treg cells are co-cultured at increasing dilutions with CFSE-labeled responder CD4+ T cells and their ability to suppress responder T cell proliferation upon anti-CD3/CD28 stimulation is assessed. Naive CD4+ T cells from Foxp3IRES-GFP mice were cultured under either optimal conditions for Treg differentiation (Treg Hi) or sub-optimal Treg differentiation conditions in the presence of BRD6989. The resulting GFP+ Treg cells were sorted by FACS. […] Assay was performed as described in eLife 2015; 4:e05920.
Imbalances between anti-inflammatory (FoxP3+ Treg) and pro-inflammatory (TH1 and TH17) CD4+ T cell lineages can lead to pathogenic inflammations in a number of diseases contexts. Therapeutic strategies that enhance FoxP3+ Treg differentiation and/or function are being pursued for treatment of immune and inflammatory disorders. Treatment of naïve CD4+ T cells in the presence of multiple structural classes of CDK8 inhibitors can enhance differentiation into FoxP3+Tregs (FIG. 16).

R848-stimulated BMDCs = experiment: Cytokine production by R848-stimulated BMDCs; format: cell-based, mouse
Excerpt: (§1) The pyridinyl tetrahydroquinoline BRD6989 (10) emerged as a prioritized hit in the screen (FIG. 2a and Table 2). […] Thus, BRD6989 enhances IL-10 production in activated human and murine macrophages and dendritic cells by a mechanism that appears most pronounced following stimulation of toll-like receptors-7 (TLR7) and TLR8 by R848.
(§2) Pre-treatment with these CDK8/19 inhibitors recapitulated the IL-10 potentiating activity of BRD6989 in both BMDCs (FIG. 9b) along with human DCs derived from two independent donors in the context of R848 stimulation (FIGS. 9c and 10a).

Cyclin C/CDK8 = Cyclin C/CDK8 (Homo sapiens, UniProt P49336); experiment: Kinase activity of recombinant Cyclin C/CDK8; format: biochemical; conditions: recombinant complex
Cyclin C/CDK8, sequence (P49336 whole entry, species assumed): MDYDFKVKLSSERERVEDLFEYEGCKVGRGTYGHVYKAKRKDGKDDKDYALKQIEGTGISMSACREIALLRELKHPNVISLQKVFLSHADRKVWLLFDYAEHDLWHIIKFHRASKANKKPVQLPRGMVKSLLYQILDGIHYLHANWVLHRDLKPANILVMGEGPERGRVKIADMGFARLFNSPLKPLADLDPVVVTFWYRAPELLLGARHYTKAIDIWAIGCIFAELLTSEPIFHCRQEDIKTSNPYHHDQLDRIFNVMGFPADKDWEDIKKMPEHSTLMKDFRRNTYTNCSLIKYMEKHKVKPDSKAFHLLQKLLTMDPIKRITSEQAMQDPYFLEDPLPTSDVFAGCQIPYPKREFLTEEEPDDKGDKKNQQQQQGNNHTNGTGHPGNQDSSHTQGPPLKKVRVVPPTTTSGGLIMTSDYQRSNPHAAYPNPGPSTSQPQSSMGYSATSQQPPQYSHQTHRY
Cyclin C/CDK8, sequence (P24863 whole entry partner, species assumed): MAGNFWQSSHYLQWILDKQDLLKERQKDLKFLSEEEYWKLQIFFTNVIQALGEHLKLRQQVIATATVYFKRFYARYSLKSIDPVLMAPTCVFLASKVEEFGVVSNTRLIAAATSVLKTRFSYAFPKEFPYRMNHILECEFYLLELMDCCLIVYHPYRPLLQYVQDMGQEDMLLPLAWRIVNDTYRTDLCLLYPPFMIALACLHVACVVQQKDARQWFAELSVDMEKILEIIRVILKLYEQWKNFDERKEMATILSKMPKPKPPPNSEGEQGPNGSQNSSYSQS
Excerpt: Together, these kinase profiling, binding assay, enzyme inhibition and cell-based data identify the Mediator-associated kinases CDK8, and to a lesser degree CDK19, as molecular targets of BRD6989.

[1] = test system: Zymosan A-stimulated BMDCs; experiment: Viability of zymosan A-stimulated BMDCs; format: cell-based, mouse
Excerpt: as §1

BMDMs = experiment: Transcriptional profiling of stimulated BMDMs; format: cell-based, mouse
Experimental: To define systematically the role of CDK8 during innate immune activation, the transcriptional responses elicited by dCA or BRD6989 following stimulation of BMDMs were profiled with a panel of 10 microbial ligands or Sendai virus for time points from 15 min to 4 hours. BMDMs were chosen for these experiments because, like human and mouse DCs, they upregulate IL-10 in response to CDK8 inhibition (FIG. 5c), and they have been previously studied using the multiplexed pathway reporter assay described below (O'Connell, et al., Cell Syst 2:323-34, 2016). In this experiment, the transcriptional responses elicited by BRD6989 and dCA were highly correlated (FIG. 12a), again supporting CDK8 as a principle cellular target of BRD6989.

[2] = test system: naïve, splenic CD4+ T cells; experiment: IL-10 production during ex vivo differentiation of Tregs; format: cell-based
Experimental: FIG. 10—Cellular activities of CDK8 inhibitors. […] (b) Effect of CDK7 inhibitor THZ1 on viability and IL-10 production of R848-stimulated BMDCs (each point corresponds to mean±S.D.; n=4 biological replicates from 1 independent experiment). (c) IL-10 levels were quantified in tissue culture media generated during differentiation of naïve, splenic CD4+ T cells into Treg's in the presence of dCA (0.1 μM) or BRD6989 (5 μM) (each point correspond to mean±S.D.; n=3 biological replicates from 1 independent experiment; *, P<0.05; n.s., not significant using one-way ANOVA with Dunnett's post-test). Data from all panels is representative of at least 2 independent experiments.
as §2

Q: What does the source list for `CC1CCc2nc(N)c(C#N)c(-c3cccnc3)c2C1` (stereo not drawn) [BRD6989]?
A: suppression of CD4+ T cell proliferation by inhibitor-induced Tregs (responder CD4+ T cells): suppressed the proliferation of co-cultured responder CD4+ T cells in vitro at each dilution; IL-10 production (R848-stimulated BMDCs): greater fold-increase in IL-10 production; pIC50 (Cyclin C/CDK8): ~6.30; cell viability [1]: only modestly reducing cell viability; also recorded: does not significantly reduce the viability; expression of interferon-inducible genes Ifit2, Cxcl10 and Rsad2 (BMDMs): reduced expression of the interferon-inducible genes Ifit2, Cxcl10 and Rsad2; IL-10 production during Treg differentiation [2]: neither dCA nor BRD6989 dramatically increased IL-10 production

From patent publication US11285144B2, “Use of CDK8 inhibitors to treat diseases of inflammation and autoimmunity” (THE BROAD INSTITUTE, INC., priority 2016, dated 2022)
